In patent publication US20230356105A1, “TETRAAZADODECANE BASED CHELATING AGENTS FOR SEPARATION OF RARE EARTH ELEMENTS AND METHOD THEREFOR” (Ustav Organicke Chemie a Biochemie AV CR V.V.I., priority 2020, published 2023):
Blank lines part the entries; values can stand above or below the molecule they belong to.

Assay: Use of additives to improve separation of Nd/Dy mixture by precipitation with L5 (Example 18)
Format: physicochemical
Settings: 11 mM L5
Description: Stock solutions were pipetted into plastic 1×1 cm cuvettes to prepare reaction mixtures with concentrations as follows: • 1. […] 5 mM NdCl3 • 3. 5 mM DyCl3 • 4. 500 mM MOPS pH=7 • 5. the additive of interest, in a variable concentration; if possible, stock solutions were prepared from Na^+ salt forms of the compound; if not, the stock solutions were titrated by NaOH/HCl to pH=7 prior to addition (see Table 12 for additives and concentrations)
These aqueous reaction mixtures, each prepared to a total volume of 2.0 mL with the addition of water as necessary, were mixed by the use of a PTFE-coated stir bar on a magnetic stirrer. The cuvettes were sealed with transparent tape to prevent evaporation overnight. The reaction mixtures were stirred for 18 hours, at which point 500 μL aliquots of each reaction mixture were transferred into plastic 2 mL Eppendorf tubes and centrifuged. The supernatants were carefully pipetted out and transferred to a new set of tubes. The precipitate was dissolved by addition of 500 μL 1M HCl. The absolute concentration of Nd and Dy in each supernatant and precipitate was determined by ICP-OES.

SMILES: O=S(=O)(O)O [sulfate]
- Precipitate concentration [mM] Dy (additive 100 mM): 4.52 mM
- Precipitate concentration [mM] Nd (additive 100 mM): 4.90 mM
- Supernatant concentration [mM] Dy (additive 100 mM): 0.34 mM
- Supernatant concentration [mM] Nd (additive 100 mM): 0.07 mM
- Precipitate concentration [mM] Dy (additive 250 mM): 4.09 mM
- Precipitate concentration [mM] Nd (additive 250 mM): 4.96 mM
- Supernatant concentration [mM] Dy (additive 250 mM): 0.47 mM
- Supernatant concentration [mM] Nd (additive 250 mM): 0.08 mM
- Precipitate concentration [mM] Dy (additive 500 mM): 3.57 mM
- Precipitate concentration [mM] Nd (additive 500 mM): 4.30 mM
- Supernatant concentration [mM] Dy (additive 500 mM): 1.00 mM
- Supernatant concentration [mM] Nd (additive 500 mM): 0.59 mM
- Precipitate concentration [mM] Dy (additive 1000 mM): 3.35 mM
- Precipitate concentration [mM] Nd (additive 1000 mM): 4.61 mM
- Supernatant concentration [mM] Dy (additive 1000 mM): 1.20 mM
- Supernatant concentration [mM] Nd (additive 1000 mM): 0.34 mM

SMILES: N#C[S-].[Na+] [thiocyanate]
- Precipitate concentration [mM] Dy (additive 100 mM): 4.46 mM
- Precipitate concentration [mM] Nd (additive 100 mM): 4.66 mM
- Supernatant concentration [mM] Dy (additive 100 mM): 0.31 mM
- Supernatant concentration [mM] Nd (additive 100 mM): 0.14 mM
- Precipitate concentration [mM] Dy (additive 200 mM): 4.42 mM
- Precipitate concentration [mM] Nd (additive 200 mM): 4.60 mM
- Supernatant concentration [mM] Dy (additive 200 mM): 0.51 mM
- Supernatant concentration [mM] Nd (additive 200 mM): 0.41 mM
- Precipitate concentration [mM] Dy (additive 500 mM): 4.16 mM
- Precipitate concentration [mM] Nd (additive 500 mM): 4.65 mM
- Supernatant concentration [mM] Dy (additive 500 mM): 0.72 mM
- Supernatant concentration [mM] Nd (additive 500 mM): 0.36 mM
- Precipitate concentration [mM] Dy (additive 1000 mM): 3.26 mM
- Precipitate concentration [mM] Nd (additive 1000 mM): 4.63 mM
- Supernatant concentration [mM] Dy (additive 1000 mM): 1.70 mM
- Supernatant concentration [mM] Nd (additive 1000 mM): 0.41 mM

SMILES: O=C(O)c1cccc(C(=O)O)n1 [dipicolinic acid]
- Precipitate concentration [mM] Dy (additive 20 mM): 0.36 mM
- Precipitate concentration [mM] Nd (additive 20 mM): 2.66 mM
- Supernatant concentration [mM] Dy (additive 20 mM): 4.29 mM
- Supernatant concentration [mM] Nd (additive 20 mM): 2.21 mM

SMILES: OB(O)c1ccccc1 [phenylboronic acid]
- Precipitate concentration [mM] Dy (additive 20 mM): 4.33 mM
- Precipitate concentration [mM] Nd (additive 20 mM): 5.02 mM
- Supernatant concentration [mM] Dy (additive 20 mM): 0.31 mM
- Supernatant concentration [mM] Nd (additive 20 mM): 0.08 mM
- Precipitate concentration [mM] Dy (additive 250 mM): 3.36 mM
- Precipitate concentration [mM] Nd (additive 250 mM): 4.12 mM
- Supernatant concentration [mM] Dy (additive 250 mM): 1.22 mM
- Supernatant concentration [mM] Nd (additive 250 mM): 0.87 mM

Further lines, results first:

- Precipitate concentration [mM] Dy (additive 5 mM): 3.15 mM
- Precipitate concentration [mM] Nd (additive 5 mM): 4.33 mM
- Supernatant concentration [mM] Dy (additive 5 mM): 1.59 mM
- Supernatant concentration [mM] Nd (additive 5 mM): 0.51 mM
- Precipitate concentration [mM] Dy (additive 10 mM): 2.08 mM
- Precipitate concentration [mM] Nd (additive 10 mM): 4.49 mM
- Supernatant concentration [mM] Dy (additive 10 mM): 2.47 mM
- Supernatant concentration [mM] Nd (additive 10 mM): 0.21 mM
- Precipitate concentration [mM] Dy (additive 15 mM): 1.60 mM
- Precipitate concentration [mM] Nd (additive 15 mM): 4.38 mM
- Supernatant concentration [mM] Dy (additive 15 mM): 3.21 mM
- Supernatant concentration [mM] Nd (additive 15 mM): 0.49 mM
- Precipitate concentration [mM] Dy (additive 20 mM): 1.18 mM
- Precipitate concentration [mM] Nd (additive 20 mM): 4.33 mM
- Supernatant concentration [mM] Dy (additive 20 mM): 3.57 mM
- Supernatant concentration [mM] Nd (additive 20 mM): 0.50 mM
SMILES: C[C@H](O)C(=O)O [l-lactate]

- Precipitate concentration [mM] Dy (additive 20 mM): 1.13 mM
- Precipitate concentration [mM] Nd (additive 20 mM): 4.52 mM
- Supernatant concentration [mM] Dy (additive 20 mM): 3.77 mM
- Supernatant concentration [mM] Nd (additive 20 mM): 0.47 mM
SMILES: O=C(O)[C@@H](O)c1ccccc1 [s-mandelic acid]

- Precipitate concentration [mM] Dy (additive 50 mM): 3.60 mM
- Precipitate concentration [mM] Nd (additive 50 mM): 4.90 mM
- Supernatant concentration [mM] Dy (additive 50 mM): 1.01 mM
- Supernatant concentration [mM] Nd (additive 50 mM): 0.09 mM
- Precipitate concentration [mM] Dy (additive 100 mM): 2.79 mM
- Precipitate concentration [mM] Nd (additive 100 mM): 4.61 mM
- Supernatant concentration [mM] Dy (additive 100 mM): 1.99 mM
- Supernatant concentration [mM] Nd (additive 100 mM): 0.42 mM
- Precipitate concentration [mM] Dy (additive 150 mM): 2.44 mM
- Precipitate concentration [mM] Nd (additive 150 mM): 4.91 mM
- Supernatant concentration [mM] Dy (additive 150 mM): 2.25 mM
- Supernatant concentration [mM] Nd (additive 150 mM): 0.11 mM
- Precipitate concentration [mM] Dy (additive 200 mM): 1.86 mM
- Precipitate concentration [mM] Nd (additive 200 mM): 4.69 mM
- Supernatant concentration [mM] Dy (additive 200 mM): 2.85 mM
- Supernatant concentration [mM] Nd (additive 200 mM): 0.28 mM
SMILES: NCC(=O)O [glycine]

- Precipitate concentration [mM] Dy (additive 5 mM): 2.61 mM
- Precipitate concentration [mM] Nd (additive 5 mM): 4.64 mM
- Supernatant concentration [mM] Dy (additive 5 mM): 1.73 mM
- Supernatant concentration [mM] Nd (additive 5 mM): 0.09 mM
- Precipitate concentration [mM] Dy (additive 10 mM): 1.71 mM
- Precipitate concentration [mM] Nd (additive 10 mM): 4.92 mM
- Supernatant concentration [mM] Dy (additive 10 mM): 2.93 mM
- Supernatant concentration [mM] Nd (additive 10 mM): 0.20 mM
- Precipitate concentration [mM] Dy (additive 15 mM): 1.11 mM
- Precipitate concentration [mM] Nd (additive 15 mM): 4.54 mM
- Supernatant concentration [mM] Dy (additive 15 mM): 3.13 mM
- Supernatant concentration [mM] Nd (additive 15 mM): 0.35 mM
- Precipitate concentration [mM] Dy (additive 20 mM): 0.82 mM
- Precipitate concentration [mM] Nd (additive 20 mM): 4.33 mM
- Supernatant concentration [mM] Dy (additive 20 mM): 3.82 mM
- Supernatant concentration [mM] Nd (additive 20 mM): 0.64 mM
SMILES: O=C(O)CO [glycolate]
